Measurements reported in patent US8853238B2, “Fused heterocyclic compound and use thereof for pest control” (Sumitomo Chemical Company, Limited, priority 2010, dated 2014).

Columns and labels:
Type in all cases: in vivo
[1] = system: Aphis gossypii; experiment: Test Example 2: root immersion of cucumber seedling, then inoculation with Aphis gossypii; details: 168 h; 500 ppm active ingredient; cucumber root part immersed in 5 ml; 30 Aphis gossypii inoculated one day after treatment; examined after further seven days
Method: A root part of a cucumber seedling (the first true leaf stage) from which soil had been washed off was immersed in 5 ml of each of the diluted solutions, and one day after treatment, on the cucumber leaf surface was inoculated with 30 Aphis gossypii (whole stage). After further seven days, the number of insect of living Aphis gossypii parasitized on the leaves of the cucumber was examined, and a control value was calculated according to the following equation: Control value (%)={1−(Cb×Tai)/(Cai×Tb))×100 wherein symbols represent as follows: Cb: the number of insects in a non-treated section before treatment, Cai: the number of insects in a non-treated section in observation, Tb: the number of insects in a treated-section before treatment, Tai: the number of insects in a treated-section in observation; wherein the non-treated section represents a section where the test diluted solution prepared by diluting the formulation without the present compound in Formulation Example 5 with the same amount of water as in the treated-section was used.

[2] = system: Aphis gossypii; experiment: Test Example 1: spray on cucumber seedling inoculated with Aphis gossypii; details: topical, 144 h; 500 ppm active ingredient (Formulation Example 5 diluted with water); 20 ml sprayed on cucumber seedling with about 30 Aphis gossypii; six days after spraying
Method: On the other hand, on a cucumber seedling (the first true leaf stage) planted in a plastic cup was inoculated with about 30 Aphis gossypii, and leaving it for a day. Twenty ml of each of the above test spray solutions was sprayed on this seedling. Six days after spraying, the number of the surviving Aphis gossypii parasitized on the leaves of the cucumber was examined, and a control value was calculated according to the following equation: Control value (%)={1−(Cb×Tai)/(Cai×Tb))×100 wherein symbols represent as follows: Cb: the number of insects in a non-treated section before treatment, Cai: the number of insects in a non-treated section in observation, Tb: the number of insects in a treated-section before treatment, Tai: the number of insects in a treated-section in observation; wherein the non-treated section represents a section where the test spray solution prepared by diluting the formulation without the present compound in Formulation Example 5 with the same amount of water as in the treated-section was sprayed.

[3] = system: Nilaparvata lugens; experiment: Test Example 4: spray on rice seedling, release of Nilaparvata lugens larvae; details: 144 h, read-out: Control value
[4] = system: Bemisia tabaci; experiment: Test Example 6: spray on tomato seedling with Bemisia tabaci instar larvae; details: 168 h; 500 ppm active ingredient; 20 ml/cup sprayed on tomato seedling with hatched Bemisia tabaci instar larvae; after 7 days at 25° C.
Method: On the other hand, Bemisia tabaci adult was released on a tomato seedling (the third true leaf stage) planted in a polyethylene cup, and made to lay eggs for about 72 hours. The tomato seedling was kept in a greenhouse for 8 days. When instar larvae hatched from the eggs, the above test spray solution was sprayed in the amount of 20 ml/cup. The cup was kept in a greenhouse at 25° C. After the keeping for 7 days, the number of surviving instar larvae on the tomato leaves was examined, and a control value was calculated according to the following equation: Control value (%)={1−(Cb×Tai)/(Cai×Tb))×100 wherein symbols represent as follows: Cb: the number of insects in a non-treated section before treatment, Cai: the number of insects in a non-treated section in observation, Tb: the number of insects in a treated-section before treatment, Tai: the number of insects in a treated-section in observation; wherein the non-treated section represents a section where the test spray solution prepared by diluting the formulation without the present compound in Formulation Example 5 with the same amount of water as in the treated-section was sprayed.

[5] = system: Nilaparvata lugens; experiment: Test Example 5: drench at foot of rice seedling, release of Nilaparvata lugens larvae; details: soil, 144 h; 500 ppm active ingredient; rice seedling drenched at its foot with 5 ml, kept 7 days; twenty third-fourth instar larvae of Nilaparvata lugens; examined after 6 days
Method: On the other hand, a rice seedling (2 weeks after sowing, the second leaf stage) planted in a plastic cup was drenched at its foot with 5 ml of each of the diluted solutions, and kept in a greenhouse of 25° C. for 7 days. Twenty third-fourth instar larvae of Nilaparvata lugens were released, and further kept in the greenhouse for 6 days, then the number of insect of living Nilaparvata lugens parasitized on the rice was examined, and a control value was calculated according to the following equation: Control value (%)={1−(Cb×Tai)/(Cai×Tb))×100 wherein symbols represent as follows: Cb: the number of insects in a non-treated section before treatment, Cai: the number of insects in a non-treated section in observation, Tb: the number of insects in a treated-section before treatment, Tai: the number of insects in a treated-section in observation; wherein the non-treated section represents a section where the test diluted solution prepared by diluting the formulation without the present compound in Formulation Example 5 with the same amount of water as in the treated-section was used.

[6] = 500 ppm active ingredient, rice seedling sprayed with 10 ml, third-fourth instar larvae of Nilaparvata lugens, after 6 days at 25° C.

| Structure (SMILES) | pest or weed control at 500 ppm [1] [%] | pest or weed control at 500 ppm [3, 6] [%] | further results |
| --- | --- | --- | --- |
| CCOCn1c(-c2ccccc2SCC)nc2cc(C(F)(F)F)cnc21 [Present Compound 33, 3-ethoxymethyl-2-(2-ethylsulfanylphenyl)-6-trifluoromethyl-3H-imidazo[4,5-b]pyridine] | ≥ 90 | – | – |
| CCSc1ccccc1-c1nc2ncc(C(F)(F)F)cc2n1C [Present Compound 66, 2-(2-ethylsulfanylphenyl)-1-methyl-6-trifluoromethyl-1H-imidazo[4,5-b]pyridine] | ≥ 90 | – | pest or weed control at 500 ppm [2]: ≥ 90% |
| CCSc1cc(Br)ccc1-c1nc2cc(C(F)(F)F)cnc2n1C [compound 238, 2-(4-bromo-2-ethylsulfanylphenyl)-3-methyl-6-trifluoromethyl-3H-imidazo[4,5-b]pyridine] | – | ≥ 90 | – |
| CCSc1ccccc1-c1nc2cc(C(F)(F)F)cnc2s1 [compound 183, 2-(2-ethylsulfanylphenyl)-6-(trifluoromethyl)thiazolo[5,4-b]pyridine] | – | – | pest or weed control at 500 ppm [2]: ≥ 90% |
| CC[S+]([O-])c1ccccc1-c1nc2cc(I)cnc2n1C (stereo not drawn) [Present Compound 46, 2-(2-ethylsulfinylphenyl)-6-iodo-3-methyl-3H-imidazo[4,5-b]pyridine] | ≥ 90 | ≥ 90 | pest or weed control at 500 ppm [2]: ≥ 90% |
| CCSc1cc(C(F)(F)F)ccc1-c1nc2cc(S(F)(F)(F)(F)F)ccc2n1C [compound 314, 2-(2-ethylsulfanyl-4-trifluoromethyl-phenyl)-1-methyl-5-(pentafluorosulphur)-1H-benzimidazole] | – | ≥ 90 | – |
| CCSc1ccccc1-c1nc2cc(C(F)(F)F)ccc2n1C [Present Compound 68, 2-(2-ethylsulfanylphenyl)-1-methyl-5-trifluoromethyl-1H-benzimidazole] | – | ≥ 90 | – |
| CSc1ccccc1-c1nc2cc(C(F)(F)F)ccc2s1 [Present Compound 84, 2-(2-methylsulfanylphenyl)-5-trifluoromethylbenzothiazole] | – | ≥ 90 | – |
| CCS(=O)(=O)c1ccccc1-c1nc2cc(C(F)(F)F)ccc2n1C [Present Compound 70, 2-(2-ethylsulfonylphenyl)-1-methyl-5-trifluoromethyl-1H-benzimidazole] | ≥ 90 | – | – |
| CC[S+]([O-])c1ccccc1-c1nc2cc(C(F)(F)F)cnc2o1 (stereo not drawn) [Present Compound 82, 2-(2-ethylsulfinylphenyl)-6-trifluoromethyloxazolo[5,4-b]pyridine] | ≥ 90 | – | – |
| CCSc1ccccc1-c1nc2cc(C(F)(F)C(F)(F)C(F)(F)F)cnc2n1C [Present Compound 128, 2-(2-ethylsulfanyl-phenyl)-6-heptafluoropropyl-3-methyl-3H-imidazo[4,5-b]pyridine] | – | – | pest or weed control at 500 ppm ([3]; Nilaparvata lugens): ≥ 90% |
| CC[S+]([O-])c1ccccc1-c1nc2cc(Br)cnc2n1C (stereo not drawn) [Present Compound 43, 6-bromo-2-(2-ethylsulfinylphenyl)-3-methyl-3H-imidazo[4,5-b]pyridine] | ≥ 90 | – | – |
| CC[S+]([O-])c1ccccc1-c1nc2cc(C(F)(F)F)cc(Cl)c2n1C (stereo not drawn) [Present Compound 72, 7-chloro-2-(2-ethylsulfinylphenyl)-1-methyl-5-trifluoromethyl-1H-benzimidazole] | – | – | pest or weed control at 500 ppm [2]: ≥ 90% |
| CCOCn1c(-c2ccccc2S(=O)(=O)CC)nc2cc(C(F)(F)F)cnc21 [Present Compound 36, 2-(2-ethylsulfonylphenyl)-3-ethoxymethyl-6-trifluoromethyl-3H-imidazo[4,5-b]pyridine] | ≥ 90 | – | – |
| CC[S+]([O-])c1ccccc1-c1nc2cc(C#N)cnc2n1C (stereo not drawn) [Present Compound 49, 6-cyano-2-(2-ethylsulfinylphenyl)-3-methyl-3H-imidazo[4,5-b]pyridine] | – | – | pest or weed control at 500 ppm [4]: ≥ 90% |
| CCS(=O)(=O)c1ccccc1-c1nc2cc(C(F)(F)F)cnc2n1COC [Present Compound 38, 2-(2-ethylsulfonylphenyl)-3-methoxymethyl-6-trifluoromethyl-3H-imidazo[4,5-b]pyridine] | – | – | pest or weed control at 500 ppm [5]: ≥ 90% |
| CC[S+]([O-])c1ccccc1-c1nc2cc(C(F)F)cnc2n1C (stereo not drawn) [Present Compound 53, 6-difluoromethyl-2-(2-ethylsulfinylphenyl)-3-methyl-3H-imidazo[4,5-b]pyridine] | ≥ 90 | – | pest or weed control at 500 ppm [2]: ≥ 90% |
| Cn1c(-c2ccccc2[S+]([O-])C(C)(C)C)nc2cc(C(F)(F)F)cnc21 (stereo not drawn) [Present Compound 16, 2-(2-tert-butylsulfinylphenyl)-3-methyl-6-trifluoromethyl-3H-imidazo[4,5-b]pyridine] | ≥ 90 | – | – |
| CCOCn1c(-c2ccccc2SCC)nc2ncc(C(F)(F)F)cc21 [Present Compound 34, 1-ethoxymethyl-2-(2-ethylsulfanylphenyl)-6-trifluoromethyl-1H-imidazo[4,5-b]pyridine] | ≥ 90 | – | – |
| CC(C)Sc1ccccc1-c1nc2cc(C(F)(F)F)cnc2n1C [Present Compound 12, 2-(2-isopropylsulfanylphenyl)-3-methyl-6-trifluoromethyl-3H-imidazo[4,5-b]pyridine] | – | ≥ 90 | – |
| CCSc1ccccc1-c1nc2ccc(C(F)(F)F)nc2n1C [Present Compound 151, 2-(2-ethylsulfanylphenyl)-3-methyl-5-trifluoromethyl-3H-imidazo[4,5-b]pyridine] | – | – | pest or weed control at 500 ppm [2]: ≥ 90% |
| CSc1ccccc1-c1nc2cc(C(F)(F)F)cnc2n1C [Present Compound 1, 3-methyl-2-(2-methylsulfanylphenyl)-6-trifluoromethyl-3H-imidazo[4,5-b]pyridine] | – | ≥ 90 | – |
| CCS(=O)(=O)c1ccccc1-c1nc2cc([S+]([O-])C(F)(F)F)cnc2n1C (stereo not drawn) [compound 214, 2-(2-ethylsulfonylphenyl)-6-trifluoromethylsulfinyl-3-methyl-3H-imidazo[4,5-b]pyridine] | – | – | pest or weed control at 500 ppm [5]: ≥ 90% |
| CC[S+]([O-])c1ccccc1-c1nc2nc(C(F)(F)F)ccc2n1C (stereo not drawn) [compound 167, 2-(2-ethylsulfinylphenyl)-1-methyl-5-trifluoromethyl-1H-imidazo[4,5-b]pyridine] | ≥ 90 | – | – |
| CC[S+]([O-])c1ccccc1-c1nc2cc(C(F)(F)F)ccc2n1C (stereo not drawn) [Present Compound 69, 2-(2-ethylsulfinylphenyl)-1-methyl-5-trifluoromethyl-1H-benzimidazole] | ≥ 90 | ≥ 90 | – |
| CCS(=O)(=O)c1ccccc1-c1nc2cc(C(F)(F)F)cnc2o1 [Present Compound 83, 2-(2-ethylsulfonylphenyl)-6-trifluoromethyloxazolo[5,4-b]pyridine] | ≥ 90 | ≥ 90 | – |
| CCS(=O)(=O)c1ccccc1-c1nc2cc(C(F)(F)F)cnc2s1 [compound 185, 2-(2-ethylsulfonylphenyl)-6-(trifluoromethyl)thiazolo[5,4-b]pyridine] | – | – | pest or weed control at 500 ppm [5]: ≥ 90% |
